Patent US11844793B2, “Liquid formulations of indacaterol” (AeroRx Therapeutics LLC, priority 2020, dated 2023)

Tests used:
Type in all cases: physicochemical
[1] = Aqueous solubility of indacaterol with varying pH in citrate buffer; conditions: aqueous citrate buffer 5 mM
Protocol: Solubility studies of indacaterol in solutions of varying pH were performed using an orbital shaker method. Excess indacaterol was placed in a glass vial with an aqueous citrate buffer (5 mM; prepared from citric acid and NaOH). Samples were shaken for 12 to 24 hours to ensure equilibrium was reached before checking and adjusting the pH (using 1 M HCl and NaOH) and placing samples back into the orbital shaker for an additional 12 hours. This process was repeated up to two times or until the desired pH was obtained. After the desired pH was reached, the vial was removed from the shaker and allowed to settle for 30 minutes. Then, the sample was filtered using a 0.2 μM PVDF syringe filter; the initial 0.5 mL of filtrate was discarded. The pH was then measured and the concentration of the indacaterol was evaluated by UV-Vis.

[2] = Aqueous solubility of indacaterol and indacaterol maleate in water (orbital shaker, UV-Vis); conditions: water at pH 7.1
Protocol: Solubility studies of indacaterol and indacaterol maleate were performed using an orbital shaker method. Excess indacaterol was placed in a glass vial with water. The initial pH of the water was 7.1. Samples were shaken for 12 hours to ensure equilibrium was reached. After the 12 hour period, the vial was removed from the shaker and allowed to settle for 30 minutes. Then, the sample was filtered using a 0.2 μM polyvinylidene fluoride (PVDF) syringe filter; the initial 0.5 mL of filtrate was discarded. The pH was then measured and the concentration of the indacaterol was evaluated by UV-Vis.

[3] = Forced degradation study of indacaterol (RP-HPLC impurities); conditions: for Total Impurities (%): includes 2% process-related impurity
Protocol: A degraded sample panel was prepared to identify indacaterol degradation pathways and products. Stress conditions are outlined in Table 1.
One of 6N HCl, 6N NaOH, or 30% H2O2 (aqueous) were added to a suitable volume of 100 μg/mL indacaterol and diluted with water:methanol (50:50, v:v) to achieve a final indacaterol concentration of 10 μg/mL. Samples were stored at ambient temperature. At specified time points, acidic and basic hydrolysis (1 N HCl and 1 N NaOH, respectively) samples were neutralized (H2O2 samples were not quenched) and reversed-phase high performance liquid chromatography (RP-HPLC) was used to quantitate indacaterol impurities. All samples were diluted to 5 μg/mL prior to RP-HPLC analysis. Method parameters are outlined in Table 2.
Total impurities (process-related and product-related) of the indacaterol forced degradation study samples are presented in Table 3. Forced degradation impurity peaks were identified based on their retention time relative (RRT) to the indacaterol peak. Impurity peaks already present in the indacaterol (control group at T0; total peak area approximately 2%) were considered process-related, while additional peaks formed after the degradation were considered product-related.

SMILES: CCc1cc2c(cc1CC)CC(NC[C@H](O)c1ccc(O)c3[nH]c(=O)ccc13)C2 [Indacaterol, (R)-5-[2-(5,6-Diethylindan-2-ylamino)-1-hydroxyethyl]-8hydroxy-1H-quinolin-2-one]
- Solubility of indacaterol versus pH [1]: increase with decreasing pH
- solubility in water [2]: insoluble
- Total Impurities (%) ([3]; Acidic Hydrolysis (1M HCl), 15 h, ambient temperature): 7.25%
- Total Impurities (%) ([3]; Acidic Hydrolysis (1M HCl), T0): 4.01%
- Total Impurities (%) ([3]; Basic Hydrolysis (1M NaOH), 15 h, ambient temperature): 7.69%
- Total Impurities (%) ([3]; Basic Hydrolysis (1M NaOH), T0): 3.99%
- Total Impurities (%) ([3]; Control, T0): 1.81%
- Total Impurities (%) ([3]; Control, T0, listed as indacaterol): approximately 2%
- degradation of indacaterol samples in aqueous solutions over time ([3]; FIG. 1, forced degradation experiment): minimal degradation
- Total Impurities (%) ([3]; Oxidation (1.2% H2O2), 7 h): 2.77%
- Total Impurities (%) ([3]; Oxidation (1.2% H2O2), 29 h): 8.83%
- Total Impurities (%) ([3]; Oxidation (1.2% H2O2), 29 h, listed as indacaterol): approximately 9%
